Key:
tyrosinase [1] = biological target: T1, tyrosinase (Homo sapiens, UniProt P14679); assay: Assay of tyrosinase activity in human melanocyte (HEMn) cells; format: cell-based; conditions: for inhibitory activity on tyrosinase: HEMn cells treated 24 hours, lysate reacted with L-DOPA, OD475 vs control, FIG. 1 and FIG. 2
T1 construct: Lysis buffer (1% Triton X-100, 1 mM phenylmethylsulfonyl fluoride (PMSF), 1 μg/ml aprotinin, and 10 μg/ml leupeptin) was added to the resulting cells to obtain the cell proteins; host or cells: HEMn human melanocytes, passages 3 to 10
T1 sequence (P14679 19-529): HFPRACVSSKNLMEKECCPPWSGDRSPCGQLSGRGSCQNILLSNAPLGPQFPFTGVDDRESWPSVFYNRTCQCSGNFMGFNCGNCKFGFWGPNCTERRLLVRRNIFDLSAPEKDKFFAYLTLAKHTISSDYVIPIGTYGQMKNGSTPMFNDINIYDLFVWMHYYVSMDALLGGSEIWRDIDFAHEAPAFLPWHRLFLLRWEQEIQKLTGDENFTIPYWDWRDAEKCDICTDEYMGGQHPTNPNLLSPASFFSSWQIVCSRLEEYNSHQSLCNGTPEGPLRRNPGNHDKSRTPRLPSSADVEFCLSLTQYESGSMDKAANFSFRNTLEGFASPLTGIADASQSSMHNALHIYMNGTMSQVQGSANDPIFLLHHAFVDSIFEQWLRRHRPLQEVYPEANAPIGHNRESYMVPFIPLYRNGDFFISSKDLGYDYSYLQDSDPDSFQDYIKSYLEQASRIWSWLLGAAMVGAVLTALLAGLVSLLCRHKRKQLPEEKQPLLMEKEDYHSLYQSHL
Procedure: Human melanocyte (HEMn) cells are cultured with medium 254 containing antibiotics and growth factors (Cascade Biologics, Inc., Portland, Oreg., USA) in an incubator with 5% CO2 for serial passage. Passages 3 to 10 of the HEMn cells were used in the experiments below.
HEMn cells were further cultured for 48 hours and then the ethyl acetate extract of the invention and the test compounds (MHL-1: 3,4-dihydroxy-5-methoxybiphenyl-2′-O-β-d-glucopyranoside and MHL-2: 3,6-dihydroxy-2,4-dimethoxy-dibenzofuran) were added. After 24 hours, the cells were washed with PBS buffer. Lysis buffer (1% Triton X-100, 1 mM phenylmethylsulfonyl fluoride (PMSF), 1 μg/ml aprotinin, and 10 μg/ml leupeptin) was added to the resulting cells to obtain the cell proteins. The cell proteins were kept at −80° C. Subsequently, the cell proteins were thawed and then centrifuged at 12,000 rpm for 5 minutes. The supernatant was taken for determination of the amount of protein by BCA protein assay. The proteins with different concentrations were added to a 96-well microplate and then PBS buffers were added. L-DOPA was added to the microplate to react with the protein at 37° C. for 1 hour. The absorbance of the solution at 475 nm wavelength was detected. Tyrosinase activity (%)=(OD475 of the sample/OD475 of control)×100.
Arbutin as positive control and 1% DMSO as blank were used in the tyrosinase activity assay stated above. […] MHL-1 and MHL-2 inhibit around 40% and 20% tyrosinase activity, respectively. The ethyl acetate extract and the compounds of the invention are effective in inhibiting tyrosinase.

tyrosinase [2] = biological target: T1, tyrosinase; assay: Tyrosinase oxidative activity analysis by L-Dopa staining of SDS-PAGE gels; format: cell-based; conditions: HEMn cells treated with 100, 80 and 60 μM of MHL-1; FIG. 3
Procedure: The compound of the invention, MHL-1, with different concentrations was added to HEMn cells. The lysis of HEMn cells, isolation of cell proteins and BCA protein assay were performed on the supernatant obtained as stated in Example 1 so that the amount of the protein could be determined. 10% SDS-polyacrylamide gel electrophoresis (dd-H2O; 10% Acrylamide mix; 1.5M Tris-base pH8.8; 10% SDS; 10% Ammonium persulfate; TEMED) was performed on the resulting protein and the sample buffer (60 mM Tris-HCl, pH 6.8, 2% sodium dodecyl sulfate (SDS), 10% glycerol, 0.01% bromophenol blue) at the same time. The molecular weight of tyrosinase was about 72 kDa. The resulting gels were washed with 0.1 M of PBS (pH 6.8) for 30 minutes and then the protein at the position of 72 kDa reacted with 5 mM L-DOPA in 0.1 M PBS at 37° C. for 1 hour. After the reaction, Quantity One 1-D software was used to determine the amount of protein.

COc1cc2c(oc3c(O)cccc32)c(OC)c1O [MHL-2, 3,6-dihydroxy-2,4-dimethoxy-dibenzofuran]
inhibitory activity on tyrosinase (tyrosinase [1]): ~20%

COc1cc(-c2ccccc2OC2OC(CO)C(O)C(O)C2O)cc(O)c1O [MHL-1, 3,4-dihydroxy-5-methoxybiphenyl-2′-O-β-D-glucopyranoside]
inhibitory activity on tyrosinase (tyrosinase [1]): around 40% | tyrosinase inhibitory activity compared with arbutin (positive control) (tyrosinase [1]; HEMn cells, FIG. 2): superior activity compared to arbutin | tyrosinase oxidative activity (L-DOPA staining of the 72 kDa band) (tyrosinase [2]): the higher the concentration of MHL-1, the lower the tyrosinase oxidative activity

Source: US7838049B2, “Extracts and compounds for inhibiting tyrosinase activity” (Taipei Medical University, priority 2009, dated 2010)
